{
  "source": "patent US9700509B2",
  "about": "“Solutions of lipophilic substances, especially medicinal solutions” (UNIVERSITÄT REGENSBURG, priority 2008, dated 2017)",
  "assay": "Dissolution in polyethylene glycol 400 (appearance of solution, microscope)",
  "type": "physicochemical",
  "conditions": "20 mg phospholipid DHGPC in 1 ml polyethylene glycol 400, 21° C.",
  "excerpt": "Polyethylene glycol 400 served as solvent. […] This was confirmed under a microscope.\nMicroscope images confirmed this.",
  "data": [
    {"smiles": "CCCCCCC(=O)OC[C@H](COP(=O)([O-])OCC[N+](C)(C)C)OC(=O)CCCCCC", "note": "[DHGPC, diheptanoyl glycerophosphocholine]", "values": [
      {"measurement": "appearance of solution", "result": "clear solution"}
    ]}
  ]
}
